# According to patent EP2601945A1 (Thomale, Jürgen, priority 2011, dated 2013):
# Test system: Pt-GG adducts in DNA
# Test: In vivo screening for cis-platin uptake inhibitors and DPH co-administration, ICA of Pt-GG adducts
# Set-up: species or system mice
# Conditions: 24 h; for inhibition of DNA platination in the three target cell types: independent of dosing (quinine 100 or 50 mg/kg, butylscopolamine 20 or 10 mg/kg) i.p. 1 h before cis-platin 10 mg/kg
# Experimental: The sacrificed animals were immediately dissected. Kidneys and lungs were submerged in embedding medium (Tissue-Tek O.C.T. Compound) and frozen in liquid nitrogen. Cochleae were dissected and fixed by intralabyrinthine perfusion with Carnoy's solution (3 hours; for DNA adduct staining) or with formaldehyde (4 % in PBS; 1 hour; for OCT protein staining). Cochleae were decalcified in EDTA solution (10 % w/v in PBS) for 3 days and then placed in sucrose solutions (5 % in PBS for 12 hours and 15 % in PBS for 5 hours). After that samples were imbedded in Tissue-Tek medium, frozen and cryosections of 10 µm cut.
# Frozen tissue sections of the inner ear or kidneys on ImmunoSelect slides were fixed in methanol at -20°C for at least 2 hours or overnight and then rehydrated for 10 minutes in PBS, at room temperature. To provide better antibody penetration in the tissue structures the samples underwent alkaline permeabilisation of cytoplasmic and nuclear membranes for 5 minutes at 0°C, followed by washing in PBS at room temperature for 5 minutes. The proteolytic cleavage of cytoplasmic and nuclear proteins was performed in two steps. At first, a pre-warmed pepsin solution (60 µg /ml for cell culture or 100 µg/ml for tissue sections in PBS/HCl) was applied onto the tissue sections and incubated for 10 minutes at 37°C in a humidified chamber. The incubation with pepsin was followed by washing in PBS for 10 minutes at room temperature. In a second step tissue sections were incubated with pre-warmed proteinase K solution (40 µg/ml for cell cultures or 50-100 µg /ml for tissue sections in proteinase K buffer) for 10 minutes at 37°C in a humidified chamber. Subsequently the sections were washed in 0.2 % glycine in PBS for 10 minutes at room temperature. Non-specific binding of the antibodies was inhibited by incubation with a blocking solution of 1 % casein in PBS for 30 minutes at room temperature. The samples were then incubated with a monoclonal antibody (R-C18, Liedert et al., 2006) specific for Pt-GG adducts in DNA (0.1 µg/ml in 0.1 % BSA/PBS) over night at 4°C in the humidified chamber. Subsequently, the slides were washed in 0.05 % Tween 20 in PBS for 5 minutes at room temperature and then in PBS for 5 minutes. The incubation with secondary Cy3-labeled rabbit anti-(rat Ig) antibodies, was performed (0.2 µg/ml in 0.1 % BSA/PBS) for 60 minutes at 37°C in the humidified chamber, followed by washing in 0.05 % Tween 20 in PBS for 5 minutes at room temperature and then in PBS for 5 minutes. The nuclear DNA was counterstained with DAPI (1 µg/ml in PBS) for 30 minutes at room temperature. The slides were then washed in PBS. Finally, the samples were embedded with a densification compound "[…]". The quantification of immuno- and DNA-fluorescence was performed by means of a microscope-coupled digital image analysis system ACAS 6.0 Cytometry Analysis System. Adduct levels in the nuclear DNA of individual cells were calculated by normalizing antibody-derived fluorescence signals to the corresponding DNA content of the same nucleus, and were expressed as arbitrary fluorescence units (AFUs). Data were assigned to specific cell types as determined by histochemistry.
# The mice were separated into two groups for pretreatment with low or high doses of the test compounds. […] The low dose group received half the dose of the high dose group (50, 50, 30 or 10 mg/kg, respectively). […] Cochleae and kidneys were dissected for immunostaining and ICA analyses of Pt-GG adduct levels in specific cell types (Figure 8). In tissue sections from mice pretreated with quinine or butylscopolamine no inhibition of DNA platination was observed, independent of the dosing, in either of the three target cell types (renal tubulus epithelium cells (Figure 8 A), cochlear marginal cells (Figure 8B) and outer hair cells (Figure 8 C)). […]
Compound,inhibition of DNA platination in the three target cell types,"reduction of adduct levels in all three target cell types (high dose (ranitidine 100 mg/kg) i.p. 1 h before cis-platin 10 mg/kg, renal tubulus epithelium, cochlear marginal and outer hair cells)"
CCCC[N+]1(C)[C@@H]2C[C@@H](OC(=O)[C@H](CO)c3ccccc3)C[C@H]1[C@@H]1O[C@@H]12 (stereo partly drawn) [butylscopolamine],no inhibition,–
C=C[C@H]1C[N@@]2CC[C@H]1C[C@H]2[C@H](O)c1ccnc2ccc(OC)cc12 [quinine],no inhibition,–
CNC(=C[N+](=O)[O-])NCCSCc1ccc(CN(C)C)o1 [ranitidine],–,15 - 20%
